Columns and labels:
neutrophils [1] = assay: E44-induced NET formation: DNA release (PicoGreen) and neutrophil elastase (NETosis Assay Kit) from neutrophils; assay type: cell-based; details: concentration-dependent
Text: (§1) Since DNA is a major component of NETs, NET formation is first examined by determining the amount of DNA released from neutrophils. […] Methods are described in Reference 1.
The methods of neutrophil isolation and preparation are similar to those described previously, and the amount of NE is detected by following kit instructions.

E44 [2] = assay: killing, NET trapping and phagocytosis of E44 by neutrophils; assay type: cell-based, E. coli
Description: (§2) The bactericidal functions of neutrophils include phagocytosis and NET-mediated killing. […] Experiments are performed according to the procedures described in Reference 2. […] The bacteria are collected and spread over Brain Heart Infusion (BHI) agar plates containing rifampin and allowed to culture for 12-16 hours, then the number of bacterial colonies of each sample is counted. […] After 1-hour incubation, the samples are centrifuged, collected, and mounted on microscope slides, which are sealed after DAPI staining, then phagocytosis of PMNs is observed and phagocytized particles are counted under a fluorescence microscope. […] However, early phagocytosis is not accompanied by a significant change in PMN structure when MOI<50. When MOI>50, each PMN on average includes at least 50 E44, a significant nuclear morphological change occurs.

neutrophils [3] = assay: MRSA-induced NET formation (release of neutrophil DNA); assay type: cell-based
Text: as §1
(§3) Experimental procedures of MEM enhancing NET formation and facilitating killing of MRSA by neutrophils are the same as described previously.

MRSA = assay: killing of MRSA by neutrophils; assay type: cell-based, methicillin-resistant Staphylococcus aureus; details: increased concentration of MEM (1-25 μM); concentration-dependent
Description: as §2, §3

E44 [4] = assay: NET formation in E44-infected mice (serum free DNA and NE); assay type: in vivo, C57 mice; details: MEM 5-10 μg/g body weight intraperitoneally, 24 hours
Description: After 24 hours, serum is obtained from blood samples collected from hearts, and the amounts of free DNA and neutrophil elastase (NE) in the serum of each mouse are determined using PicoGreen and Mouse PMN Elastase ELISA Kit (R&D Systems) respectively.

E44 [5] = assay: spread of E44 in infected mice (bacterial counts in blood, livers, lungs, spleens); assay type: in vivo, C57 mice; details: MEM 5-10 μg/g body weight intraperitoneally, 24 hours
Description: After 24 hours of E44 infection, the mice are dissected to obtain blood, livers, lungs, and spleens under aseptic condition. The obtained blood, after performing an appropriate serial dilution, is spread over BHI (containing rifampin) agar plates. The obtained livers, lungs, and spleens are precisely weighed, added with pre-cooled sterile PBS in a ratio of 0.1 g/ml, and fully homogenized. The homogenates, after performing an appropriate serial dilution, are spread over BHI (containing rifampin) agar plates.
After confirming that MEM may enhance NET formation in bacteria-infected mice, whether MEM may block the spread of bacteria in mice is discussed. […] After 24 hours of bacterial infection, the mice are dissected to obtain blood, livers, lungs, and spleens under aseptic condition for bacterial count determination.

E44 [6] = assay: killing of E44 by phagocytosis in dHL60 cells after CHRNA7 siRNA silencing; assay type: cell-based, E. coli; details: MEM dose up to 50 μM
Description: FIGS. 5A, 5B, 5C, and 5D illustrate the influence on phagocytosis by PMNs after gene silencing of CHRNA7 and S100A9. 2×10^6/ml HL60 cells are treated with 1.3% DMSO for cell stimulation and induction, and cell morphology is observed under an inverted microscope after 4-5 days. Compared to the control group, the cell volume gradually enlarges, granulocyte nuclear shapes such as kidney-shaped (banded) nucleus, segmented (multi-lobed) nucleus, bean-shaped nucleus appear after 48 hours and gradually increase over time. Cell status of each experimental group is identified using Typan Blue Exclusion Test and Wright-Giemsa Stain Method to meet the requirements for cell quality in follow-up studies. Differentiated neutrophils are added with CHRNA7 and S100A9siRNA, respectively, and treated with lipofectamine 2000 in 24-well plates, a supplemental complete cell culture medium is added after 6 hours to incubate for 48 hours, and the expression of CHRNA7 and S100A9 in differentiated HL60 (dHL60) cells is examined. Control siRNA acts as the control group, and GAPDH represents the housekeeping gene.
Samples are prepared by the dHL60 cells and E44 in a ratio of 1:5 and allowed to interact for 1 hour.

α7nAChR and S100A9 = assay: immunofluorescence of α7nAChR and S100A9 in PMNs incubated with E44; assay type: cell-based; details: PMNs with bacteria (E44), compared to bacteria groups
Description: The next step is to further examine whether alpha7 nicotinic acetylcholine receptor (α7nAChR) is associated with antimicrobial protein S100A9 during the process of phagocytizing E44 by PMNs. […] Next, an immunofluorescence staining test is performed on the samples as follows: a primary antibody is added to incubate with α7nAChR and S100A9 overnight at 4° C., and then the corresponding FITC and PE-conjugated secondary antibodies are added to incubate for 1 hour at room temperature, after mounting the samples on microscope slides with DAPI sealing, positioning and expression of α7nAChR and S100A9 are observed under a fluorescence microscope. Compared to the control group, S100A9 (red) is redistributed to the cell edge and area around the nucleus (FIG. 6) after infected with E44, it is observed that α7nAChR (green) and S100A9 (red) are located in the same position with presenting of colocalization, and the expression of both is elevated, α7nAChR (green) and S100A9 (red) also appear to have a high degree of colocalization(R close to 1) after ImageJ software analysis.

PMNs = assay: immunofluorescence of MPO, S100A9 and DNA in PMNs (NET formation); assay type: cell-based; details: PMA groups and E44 groups treated with MEM
mouse BMECs = assay: gene expression profile of E44-infected BMECs by Next Generation Sequencing; assay type: cell-based; details: E44 infection 0.5 hours
Description: After the mouse BMECs are infected with E44 for 0.5 hours, the cells are collected to extract RNA, which is sent to Hua-Da Company (China) for Next Generation Sequencing analysis.
After the mouse BMECs are infected with E44 for 0.5 hours, the cells are collected to extract RNA, which is sent to Hua-Da Company (China) to analyze alterations on gene expression profile using Next Generation Sequencing and look for differentially expressed genes, a total of 978 differentially expressed genes are found.

cBMECs = assay: number of circulating brain microvascular endothelial cells (cBMECs) in blood; details: in vivo
Description: The protocol is prepared as follows:
According to manufacturer's instructions, Dynabeads M-450 solution with a final concentration of 4×10^8 beads/ml is prepared by Hank's Balanced Salt Solution. BMECs in brain tissues and blood are isolated using UEA I. The BMECs from the brain tissues are cultured with RPMI-1640 medium containing 10% fetal bovine serum and identified using CD146 and Mfsd2a antibodies.

α7nAChR = α7nAChR (Homo sapiens, UniProt P36544); details: cited from earlier work
Chain of α7nAChR (P36544 23-502): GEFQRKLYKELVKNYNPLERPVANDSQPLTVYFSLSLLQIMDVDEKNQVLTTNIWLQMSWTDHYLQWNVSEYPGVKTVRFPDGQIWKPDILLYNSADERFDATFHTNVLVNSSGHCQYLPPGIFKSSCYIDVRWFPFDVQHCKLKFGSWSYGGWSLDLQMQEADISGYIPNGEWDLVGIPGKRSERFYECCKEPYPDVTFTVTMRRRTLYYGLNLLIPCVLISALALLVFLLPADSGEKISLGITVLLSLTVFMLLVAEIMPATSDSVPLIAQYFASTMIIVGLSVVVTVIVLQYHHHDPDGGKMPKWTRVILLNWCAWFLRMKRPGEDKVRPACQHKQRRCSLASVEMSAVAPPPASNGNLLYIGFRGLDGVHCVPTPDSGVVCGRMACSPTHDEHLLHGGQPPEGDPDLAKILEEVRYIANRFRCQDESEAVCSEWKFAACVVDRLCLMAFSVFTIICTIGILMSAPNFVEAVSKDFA

C[C@]12C[C@@H]3C[C@](C)(C1)C[C@@](N)(C3)C2.Cl [MEM, 3,5-Dimethyl-1-aminoadamantane hydrochloride]
release of DNA from neutrophils under the effect of E44 (neutrophils [1]; E44 MOI=10, different concentrations of MEM, 4 hours): significantly enhanced
production of neutrophil elastase (NE) under the effect of E44 (neutrophils [1]; E44 with addition of MEM): significantly increased
phagocytosis of E44 by PMNs (E44 [2]; 50 μM MEM, E44 MOI=1, 5, 50, 100, 1-hour incubation, versus E44 groups): more E44 are phagocytized
NETs trapping of E44 (E44 [2]; DNase used to dissolve DNA): concentration-dependently enhance
killing of E44 by neutrophils, including phagocytosis and NET-mediated killing (E44 [2]; E44 MOI=10, MEM 0, 10, 20, 50 μM, 2 hours, with or without Cytochalasin D): concentration-dependently enhance
release of neutrophil DNA under the effect of MRSA (neutrophils [3]): significantly enhance
survival rate of MRSA (MRSA): gradually decreases
NE in the blood (serum) of E44-infected mice (E44 [4]): significantly enhance
free DNA in the blood (serum) of E44-infected mice (E44 [4]): significantly enhance
spread of bacteria (E44) in mice (E44 [5]): significantly block
effect of MEM on phagocytizing bacteria by PMNs after CHRNA7 down-regulation (E44 [6]): not obvious
degree of colocalization of α7nAChR and S100A9 (α7nAChR and S100A9): remarkably reduced
expression of α7nAChR and S100A9 (α7nAChR and S100A9): significantly decreased
MPO, S100A9 and DNA formation (NET formation) (PMNs): a large number of MPO (green), S100A9 (red), and DNA (blue) are formed
E44-induced alterations on gene expression (mouse BMECs): reverse
anti-inflammatory genes IL-33, IL-18rap, MMP10, Irs1 expression (mouse BMECs): significantly up-regulate
pro-inflammatory genes A20, CISH, Ptgds, ZEP36 expression (mouse BMECs): down-regulate
number of cBMECs in blood (cBMECs): reduce
inhibitory effect on α7nAChR compared with inhibitory effect on NMDAR (α7nAChR): stronger

Source: patent publication US20200352880A1 (priority 2019, published 2020)
